Laboratory results as given in US7531565B2, “Imidazolidin-2-one derivatives as selective androgen receptor modulators (SARMS)” (Janssen Pharmaceutica, N.V., priority 2004, dated 2009).

Columns and labels:
[1] = biological target: T1, androgen receptor (Rattus norvegicus, UniProt P15207); assay: L929 androgen receptor functional assay, adenovirus transduction; format: cell-based; design: expressed in transfected cells; conditions: for % Activition @ 3 μM: agonist testing (no R1881), luciferase
T1 sequence (P15207 1-902): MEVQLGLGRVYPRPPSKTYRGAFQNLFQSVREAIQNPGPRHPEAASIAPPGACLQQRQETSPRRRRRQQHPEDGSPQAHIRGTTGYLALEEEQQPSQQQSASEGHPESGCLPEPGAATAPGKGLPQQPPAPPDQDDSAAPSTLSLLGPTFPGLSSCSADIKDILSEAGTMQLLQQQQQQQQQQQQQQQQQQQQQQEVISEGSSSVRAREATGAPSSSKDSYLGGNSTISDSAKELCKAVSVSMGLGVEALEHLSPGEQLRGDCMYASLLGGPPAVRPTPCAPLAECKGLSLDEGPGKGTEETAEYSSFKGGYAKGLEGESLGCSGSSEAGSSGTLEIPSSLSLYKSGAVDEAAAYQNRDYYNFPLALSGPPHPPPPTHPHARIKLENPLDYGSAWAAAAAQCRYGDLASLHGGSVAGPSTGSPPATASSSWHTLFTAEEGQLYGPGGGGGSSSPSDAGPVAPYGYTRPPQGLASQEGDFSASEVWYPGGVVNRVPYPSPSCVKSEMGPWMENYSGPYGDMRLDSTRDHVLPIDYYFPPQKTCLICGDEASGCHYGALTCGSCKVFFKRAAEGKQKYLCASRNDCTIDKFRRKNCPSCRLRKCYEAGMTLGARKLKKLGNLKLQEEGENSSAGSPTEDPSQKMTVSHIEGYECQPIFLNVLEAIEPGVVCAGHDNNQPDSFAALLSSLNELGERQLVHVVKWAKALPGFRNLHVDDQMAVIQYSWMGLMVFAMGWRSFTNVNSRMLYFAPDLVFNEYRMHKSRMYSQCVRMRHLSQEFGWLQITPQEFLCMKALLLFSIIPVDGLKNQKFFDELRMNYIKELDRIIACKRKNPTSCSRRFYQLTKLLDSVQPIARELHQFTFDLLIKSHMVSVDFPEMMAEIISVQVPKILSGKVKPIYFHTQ
Method: L929 cells were plated in 96-well plates at 20,000 cells per well, in DMEM/F12 (GIBCO) containing 10% (v/v) charcoal-treated fetal bovine serum (Hyclone) and lacking phenol red. The plates were then incubated overnight at 37° C. in 5% (v/v) humidified CO2.
Test compound dilutions were prepared in 100% (v/v) DMSO, if necessary. Each dilution was made to 1250× the final desired assay concentration. First, 2 mL of DMEM/F12 lacking phenol red was pipetted into the wells of a 2-mL 96-well assay block. Next, 4 μL of the 1250× test compound dilutions were pipetted into each well of the assay block. The mixtures within the well were then carefully mixed by pipette.
In a 15 mL or 50 mL sterile centrifuge tube, a 2.5 nM (2.5×) dilution of R1881 (methyl-trienolone) in DMEM/F12 lacking phenol red was prepared. In a second 15 mL or 50 mL centrifuge tube a solution containing an equal volume of DMEM to the first and an equal volume of 100% (v/v) DMSO to the volume of R1881 used in the first tube was prepared.
In a 15 mL or 50 mL sterile centrifuge tube, a dilution in DMEM/F12 of the adenovirus AdEasy+rAR at an moi of 1:500 per well was prepared. The medium was removed from the 96-well plates by inversion and dried, inverted, very briefly. As soon as possible after medium removal, 40 μL of the diluted unlabeled test compound was added to each well, in duplicate. To each well designated for antagonist testing was added 40 μL of the 2.5 nM R1881 dilution to the wells for antagonist testing. To each well designated for agonist testing was added 40 μL of the DMSO dilution. Then 20 μL of the diluted adenovirus were added to all wells. The plates were incubated for 48 hours at 37° C. in 5% (v/v) humidified CO2.
To each well was added 100 μL of Steady-Glo luciferase assay substrate (Promega) and the plates were placed on a rotary shaker for 1 min. The plates were then incubated at room temperature in the dark for one hour. The contents of each well were then transferred to a white microtiter plate (Packard) and read on a Luminoskan Ascent (Thermo Lab Systems).
L929 AR percent activity was determined by testing dilutions of the test compound using a concentration of 3000 nM unless otherwise noted. L929 percent inhibition was determined by testing dilutions of the test compound using a concentration of 3000 nM. EC50s and IC50s were determined by testing serial dilutions of the test compound (usually duplicate ten half-log dilutions starting at 10 μM). Luciferase activity per well were measured and EC50s and IC50s determined by linear regression.
Representative compounds of the present invention were tested for functional activity at the androgen receptor according to the procedure described above with results as listed in Table 4.

[2] = biological target: T1, androgen receptor; assay: Androgen receptor binding using rat ventral prostate cytosol; design: Male Sprague Dawley or Wistar rats (Charles River, 200-300 g) were used for each preparation; from tissue; host or cells: ventral prostate cytosol of castrated male Sprague Dawley or Wistar rats
[3] = 3 μM, L929 cells, antagonist testing with R1881, luciferase

For COC(=O)C1(C)CN(c2ccc(C#N)c(C(F)(F)F)c2)C(=O)N1 (racemic) [Compound 4e], the “% Activition @ 3 μM” value ([1]; 3 μM, L929 cells) was 0%, the “% Inhibition @ 3 μM” value [1, 3] was −15% and the “% Inhibition @ 3 μM” value [2] was −68%.
For COc1ccc(N2CC(C)(C(=O)O)NC2=O)cc1 (racemic) [Compound 5c], the “% Activition @ 3 μM” value ([1]; 3 μM, L929 cells) was −5%, the “% Inhibition @ 3 μM” value [1, 3] was −14% and the “% Inhibition @ 3 μM” value [2] was −21%.
With CC1(C(=O)O)CN(c2ccc(Cl)c(C(F)(F)F)c2)C(=O)N1 (racemic) [Compound 5d] the “% Activition @ 3 μM” value ([1]; 3 μM, L929 cells) was 0%, the “% Inhibition @ 3 μM” value [1, 3] was −30% and the “% Inhibition @ 3 μM” value [2] was 28%.
In the case of CC1(C(=O)Nc2ccc(C#N)c(C(F)(F)F)c2)CN(c2ccc(F)cc2)C(=O)N1 (stereo not drawn) [Compound 6a, 1-(4-Fluoro-phenyl)-4-methyl-2-oxo-imidazolidine-4-carboxylic acid (4-cyano-3-trifluoromethyl-phenyl)-amide], the “% Activition @ 3 μM” value ([1]; 3 μM, L929 cells) was 9%, the inhibition at 3 µM ([1]; L929, read-out: % Inhibition @ 3 μM) was 37% and the inhibition at 3 µM [2] was 63%.
COc1ccc(N2CC(C)(C(=O)Nc3ccc(C#N)c(C(F)(F)F)c3)NC2=O)cc1 (racemic) [Compound 6c] was tested, and the “% Activition @ 3 μM” value ([1]; 3 μM, L929 cells) was 0%, the “% Inhibition @ 3 μM” value [1, 3] was 11% and the “% Inhibition @ 3 μM” value [2] was 29%.
For CC1(C(=O)O)CN(c2ccccc2)C(=O)N1 (racemic) [Compound 5b], the “% Activition @ 3 μM” value ([1]; 3 μM, L929 cells) was 0%, the “% Inhibition @ 3 μM” value [1, 3] was 32% and the “% Inhibition @ 3 μM” value [2] was −110%.
COC(=O)C1(C)CN(c2ccc(OC)cc2)C(=O)N1 (racemic) [Compound 4c] was tested, and the “% Activition @ 3 μM” value ([1]; 3 μM, L929 cells) was 2%, the “% Inhibition @ 3 μM” value [1, 3] was 5% and the “% Inhibition @ 3 μM” value [2] was −36%.
In the case of CC1(C(=O)Nc2ccc([N+](=O)[O-])c(C(F)(F)F)c2)CN(c2ccccc2)C(=O)N1 (racemic) [Compound 6e], the “% Activition @ 3 μM” value ([1]; 3 μM, L929 cells) was 2%, the “% Inhibition @ 3 μM” value [1, 3] was 96% and the “% Inhibition @ 3 μM” value [2] was −71%.
In the case of CC1(C(=O)Nc2ccc(C#N)c(C(F)(F)F)c2)CN(c2ccccc2)C(=O)N1 (racemic) [Compound 6d], the “% Activition @ 3 μM” value ([1]; 3 μM, L929 cells) was 0%, the “% Inhibition @ 3 μM” value [1, 3] was 59% and the “% Inhibition @ 3 μM” value [2] was 1%.
COC(=O)C1(C)CN(c2ccccc2)C(=O)N1 (racemic) [Compound 4b] was tested, and the “% Activition @ 3 μM” value ([1]; 3 μM, L929 cells) was 0%, the “% Inhibition @ 3 μM” value [1, 3] was 34% and the “% Inhibition @ 3 μM” value [2] was −71%.
In the case of CC1(C(=O)Nc2cccc(C(F)(F)F)c2)CN(c2ccc(F)cc2)C(=O)N1 (racemic) [Compound 6g], the “% Activition @ 3 μM” value ([1]; 3 μM, L929 cells) was 0%, the “% Inhibition @ 3 μM” value [1, 3] was −12% and the “% Inhibition @ 3 μM” value [2] was 23%.
In the case of CC1(C(=O)O)CN(c2ccc(F)cc2)C(=O)N1 (stereo not drawn) [Compound 5a, 1-(4-Fluoro-phenyl)-4-methyl-2-oxo-imidazolidine-4-carboxylic acid], the “% Activition @ 3 μM” value ([1]; 3 μM, L929 cells) was 1%, the inhibition at 3 µM ([1]; 3 μM, L929 cells, antagonist testing with R1881, luciferase, read-out: % Inhibition @ 3 μM) was 15% and the inhibition at 3 µM [2] was 33%.
CC1(C(=O)Nc2ccccc2)CN(c2ccccc2)C(=O)N1 (racemic) [Compound 6b] was tested, and the “% Activition @ 3 μM” value ([1]; 3 μM, L929 cells) was 0%, the “% Inhibition @ 3 μM” value [1, 3] was 54% and the “% Inhibition @ 3 μM” value [2] was −68%.
COC(=O)C1(C)CN(c2ccc(Cl)c(C(F)(F)F)c2)C(=O)N1 (racemic) [Compound 4d] was tested, and the “% Activition @ 3 μM” value ([1]; 3 μM, L929 cells) was 0%, the “% Inhibition @ 3 μM” value [1, 3] was 1% and the “% Inhibition @ 3 μM” value [2] was 24%.
For CC1(C(=O)Nc2ccc(C(F)(F)F)nc2)CN(c2ccccc2)C(=O)N1 (racemic) [Compound 6j], the “% Activition @ 3 μM” value ([1]; 3 μM, L929 cells) was 0%, the “% Inhibition @ 3 μM” value [1, 3] was 29% and the “% Inhibition @ 3 μM” value [2] was −75%.
For CC1(C(=O)Nc2cc(C(F)(F)F)cc(C(F)(F)F)c2)CN(c2ccc(F)cc2)C(=O)N1 (racemic) [Compound 6h], the “% Activition @ 3 μM” value ([1]; 3 μM, L929 cells) was 0%, the “% Inhibition @ 3 μM” value [1, 3] was 21% and the “% Inhibition @ 3 μM” value [2] was −17%.
